Test results as given in patent US20040022827A1, “Remedy for hepatopathy” (CHUGAI SEIYAKU KABUSIKI KAISHA, priority 1997, published 2004).

Experiments:
[1] = test system: Rat Model of CCl4-Induced Chronic Hepatopathy; experiment: Rat model of CCl4-induced chronic hepatopathy; assay type: in vivo; details: feed with 3 wt % L-valine for 14 weeks
Description: Crj: Donryu male rats aged 8-9 weeks were used. During the experiment, the rats were given a dedicated feed MF (product of Oriental Yeast) and water ad libitum. Carbon tetrachloride (product of Wako Pure Chemical Industries) was dissolved in olive oil (product of Wako Pure Chemical Industries) to prepare a 50% (v/v) solution, which was administered subcutaneously to the rats for 14 weeks on a twice-a-week basis (to give 28 shots), each time at a dose of 2 mL/kg, thereby preparing models of chronic hepatopathy. During the 14-week experiment, the rats were given an experimental feed which was a dedicated feed MF; this was given as such to the control group and as a mixture with 3 wt % L-valine to the L-val group. A non-treated (NT) group was also set. After the end of the 14-week experiment, the rats were anesthetized with ether and blood was taken from the abdominal aorta; thereafter, autopsy was done to collect liver samples.

[2] = test system: Patient with chronic hepatitis C; experiment: Peroral L-valine in patient with chronic hepatitis C; assay type: in vivo, human; details: 4-month period after start of oral L-valine 1 g three times a day; mean±SD of four monthly tests
Description: Patient ([…]) with chronic hepatitis C was given oral administration of L-valine on a three-times-a-day basis, with one gram at each time. The average GOT and GPT levels of the patient for a 4-month period before the administration of L-valine were 89.0±21.9 IU/L and 91.5±23.1 IU/L, respectively, in terms of mean±SD obtained by four tests on a monthly basis. The average GOT and GPT levels for a 4-month-period after the start of valine administration were 68.3±20.4 IU/L and 73.0±24.3 IU/L, respectively, in terms of mean±SD obtained by four tests on a monthly basis; thus, significant (p<0.05 in t-test) decreases were observed. An ameliorating effect was also observed in platelet counts; the average platelet count for a 6-month period before the administration of L-valine was 15.7±1.7 (×10^4) in terms of mean±SD obtained by four tests on a monthly or bimonthly basis, whereas the average platelet count for a 4-month period after the start of valine administration was 20.4±0.9 (×104) in terms of mean±SD obtained by four tests on a monthly basis; thus, a significant (p<0.01 in t-test) increase was observed. It was therefore clear that L-valine is also effective in patients with chronic hepatitis.

[3] = test system: Rat Model of Hepatic Insufficiency due to 90% Hepatectomy; experiment: Rat model of hepatic insufficiency due to 90% hepatectomy; assay type: in vivo
Description: Crj: Donryu male rats aged 8-9 weeks and weighing 250 g or so were used. During the experiment, the rats were given a dedicated feed MF (product of Oriental Yeast) and water ad libitum. After 12-h fasting, the rats were anesthetized with ether and a catheter was inserted into the right cervical vein of each animal and retained in the central vein. Subsequently, the rats were underwent 90% hepatectomy according to the method of Gaub et al. (J. Gaub et al., Hepatology, 4, 902-904, 1984). The catheter in the central vein was passed under the skin to connect the blade bones, fitted with a harness, passed through a protective coil and connected to a swivel (Bio-Cannula of Biomedica). The rats were transferred into a metabolic cage and subjected to the experiment under a non-anesthetized and unconstrained condition. The experimental fluids were administered constantly with the pumping speed set at 100 mL/kg/day. Immediately after the hepatectomy, 3 mL of a 20% glucose solution was administered to the rats subcutaneously; for 3 days after the hepatectomy, the rats were allowed to drink a 10% glucose solution and thereafter tap water. The experimental fluids were administered for 4 or 6 days. The treated groups were two, on being a control group administered with a lactated Ringer's injection [Lactec (registered trademark) of Otuka Seiyaku] and the other being an L-val group administered with valine (L-valine added to lactated Ringer's injection to a concentration of 16.88 g/L). A non-treated (NT) group was also set. After the end of the administration of the experimental fluids, the rats were anesthetized with ether and blood was taken from the abdominal aorta; thereafter, autopsy was done to collect liver samples.

[4] = test system: Rat Model of CC14-Induced Acute Hepatopathy; experiment: Rat model of carbon tetrachloride-induced acute hepatopathy; assay type: in vivo; details: experimental fluids administered for two days; L-valine 16.88 g/L in lactated Ringer's, 100 mL/kg/day iv; mean ± SD
Description: (§1) Crj: Donryu male rats aged 8-9 weeks and weighing 250 g or so were used. During the experiment, the rats were given a dedicated feed MF (product of Oriental Yeast) and water ad libitum. D-Galactosamine HCl (product of Sigma) was dissolved in physiological saline, adjusted to pH 7.0 with 1 N NaOH and used as a solution containing 100 mg of D-galactosamine (hereinafter referred to simply as “galactosamine”) per milliliter. Carbon tetrachloride (product of Wako Pure Chemical Industries) was used as a 50% (v/v) solution in olive oil (product of Wako Pure Chemical Industries). After 12-h fasting, the rats were administered intraperitoneally with galactosamine in a volume of 10 mL/kg or subcutaneously with the carbon tetrachloride solution at a volume of 4 mL/kg to induce hepatopathy. Immediately after the administration, the rats were anesthetized with ether and a catheter was inserted into the right cervical vein of each animal and retained in the central vein. The catheter in the central vein was passed under the skin to connect the blade bones, fitted with a harness, passed through a protective coil and connected to a swivel (Bio-Cannula of Biomedica). The rats were transferred into a metabolic cage and subjected to the experiment under a non-anesthetized and unconstrained condition. The experimental fluids were administered constantly with the pumping speed set at 100 mL/kg/day. The experimental fluids were administered for 1-4 days. The treated groups were two, one being a control group administered with a lactated Ringer's injection [[…] (registered trademark) of Otuka Seiyaku] and the other being an L-Val group administered with valine (L-valine added to lactated Ringer's injection to a concentration of 16.88 g/L). A non-treated (NT) group was also set. After the end of administration of the experimental fluids, the rats were anesthetized with ether and blood was taken from the abdominal aorta; thereafter, autopsy was done to collect liver samples.

[5] = test system: Rat Model of Glactosamine-Induced Acute Hepatopathy; experiment: Rat model of galactosamine-induced acute hepatopathy; assay type: in vivo; details: experimental fluids administered for one day; L-valine 16.88 g/L in lactated Ringer's, 100 mL/kg/day iv; mean ± SD
Description: as §1

[6] = experimental fluids administered for four days, mean ± SD
[7] = experimental fluids administered for six days, 20 animals

## CC(C)[C@H](N)C(=O)O [L-Val, L-valine]
[1]; 10 animals
  No. of deaths: 0
  No. of viable cases: 10
  Retention of ascites (No. of cases): 1
  Retention of pleural effusion (No. of cases): 0
[1]; mean ± SD
  Fischer ratio BCAA/AAA: 3.17 ± 0.96
[2]
  average GOT level: 68.3±20.4 IU/L
  average GPT level: 73.0±24.3 IU/L
  average platelet count: 20.4±0.9 ×104
[3]; [6]
  Alb: 1.8 ± 0.2 g/dL
  Fischer ratio BCAA/AAA: 3.33 ± 1.11
  GOT: 402.3 ± 302.4 IU/l
  GPT: 134.9 ± 76.3 IU/l
  TP: 3.6 ± 0.5 g/dL
[3]; [7]
  No. of deaths: 1
  No. of viable cases: 19
[3]; experimental fluids administered for six days, 20 animals, P < 0.01 vs control
  Viability: 95%
[4]
  Fischer ratio BCAA/AAA: 4.32 ± 1.74
  GOT: 3241.9 ± 2567.2 IU/1
  GPT: 1951.2 ± 1730.9 IU/l
  LDH: 3040.1 ± 4163.3 IU/l
  TP: 5.1 ± 0.4 g/dL
[5]
  Alb: 2.5 ± 0.1 g/dL
  Fischer ratio BCAA/AAA: 6.42 ± 0.40
  GOT: 760.2 ± 215.4 IU/1
  GPT: 415.7 ± 180.8 IU/1
  LDH: 973.7 ± 362.0 IU/1
  TP: 4.9 ± 0.3 g/dL
